Measured values as given in patent US20040116530A1, “Tissue fibrosis inhibitors” (priority 2001, published 2004).
Marks after values point to notes of the source that are not given here.

Legend:
acute hepatitis = settings: literature statement; cited from earlier work
[1] = system: dimethylnitrosamine-induced rat hepatitis models; assay: Dimethylnitrosamine-induced rat hepatitis model (hepatic injury and fibrogenesis); type: in vivo; settings: for Hepatic Fibrogenesis Score: n=15, histology (azan stain), grade 0-4
Procedure: Dimethylnitrosamine was frequently administered to rats for 3 weeks to thereby make the rats have irreversible hepatic fibrogenesis. The rats are the test models in this experiment. As the index of hepatic injury and fibrogenesis, the hepatic hydroxyproline was measured in every rat and the liver tissue of each rat was pathologically analyzed. Based on the data, the tissue fibrogenesis-inhibiting effect of the prostaglandin-I2 agonist was evaluated.
10 mg/kg of dimethylnitrosamine was intra-abdominally administered to rats everyday in continuous 3 days a week, over a period of three weeks. 5 days after the final administration of dimethylnitrosamine, the liver was taken out of each rat and its weight was measured. Then, distal potion of the left lobe of the liver was cut out. A part of it was used for histologic analysis^*1) for hepatic fibrogenesis; and another part thereof was used for determination of hepatic hydroxyproline content^*2).
The test compound was orally administered to the rats from the initial dimethylnitrosamine administration to one day before the blood collection from the rats. On the day for dimethylnitrosamine administration, the test compound was administered 12 hours after the dimethylnitrosamine administration; and on the other day, it was administered once a day. The effect of the test compound for curing hepatic injury and fibrogenesis was investigated. The test compound was administered to three groups −1 mg/kg/day administration group (n =15), 3.2 mg/kg/day administration group (n=15), and 10 mg/kg/day administration group (n=15). To the comparative control group, 0 mg/kg administration group (n=15), a solvent was administered in place of the test compound. To confirm the presentation of hepatic fibrogenesis through
dimethylnitrosamine administration, a solvent in place of dimethylnitrosamine was administered to a no-treatment group (n=5).
A distal potion of the left lobe of the liver was fixed in 10% neutral buffer formalin liquid, then stained with azan to prepare an anatomicopathological specimen, on which the degree of fibrogenesis was classified into 5 grades according to the fibrogenesis criteria mentioned below.
Grade 0: No fibrogenesis was found.
Grade 1: Light fibrogenesis was found only locally in and around the portal vein and the central vein.
Grade 2: The fibrogenesis in and around the portal vein and the central vein extended to the lobe.
Grade 4: High-level fibrogenesis was found along with pseudo lobe formation.
A part of the left lobe of the liver that had been frozen at −80° C. was thawed, and 1 ml/500 mg-liver weight of phosphate balanced salt buffer (PBS(−), Dulbecco PBS(−)) was added to it. Then, this was homogenized in Polytron (power control 7, type; PT 10 20 350D, by KINEMATICA) for 1 minute. 4 ml of the thus-homogenized liquid was transferred into a screw cap-equipped centrifuge (by PYREX), and 0.4 ml of 9M HCl was added to it and incubated at120° C. for 8 hours (in DRYING STERILIZER SG-62, by YAMATO). Next, this was further incubated at 4° C. overnight, then neutralized with 6 M KOH and 9M HCl, and then filtered (pore size 0.45 μm, MILLIPORE). 1 ml of chloramine-T^(**) was added to 100 μl of the filtrate or a standard liquid^(*), and left at room temperature for 20 minutes. 1 ml of Ehrich solution^(***) was added to it, and incubated at 65° C. for 40minutes. The reaction was stopped in ice-water, and then the absorbance (OD560) of the reaction liquid was measured with an spectrophotometer UV2100PC (UV-VIS SCANNING SPECTRO PHOTOMETER, by SHIMADZU).

[2] = system: bleomycin-induced mouse fibrotic lung models; assay: Bleomycin-induced lung fibrosis model in mice; type: in vivo
Procedure: Bleomycin was frequently administered to mice for 10 days to thereby make the mice fibrotic lung. The mice are the test models in this experiment. As the index of lung fibrogenesis, the lung hydroxyproline was measured in every mouse, from which the effect of the prostaglandin-I2 agonist for inhibiting lung fibrogenesis was investigated.
1. 10 mg/kg of bleomycin that had been dissolved in saline to have a concentration of 1 mg/ml was intraperitoneally administered to 8-weeks-old male C57BL/6N mice, once a day, everyday for continuous 10 days. Saline alone was intraperitoneally administered to the negative control group.
2. To the animals of the positive control group and the test compound-administered group, 10 ml/kg of pure water or an aqueous solution of the test compound (32 mg/kg) was orally administered everyday during the test period from the start of the bleomycin administration.
3. 4 weeks after the start of the bleomycin administration, the animals were killed in a mode of euthanasia, the lung was taken out, its wet weight was measured, and the lung was then freesed at −30° C.
4. […]
5. The hydrolyzed sample was neutralized with 6 mols/liter of potassium hydroxide, and the hydroxyproline content of the sample was measured, from which the lung hydroxyproline content was derived. […]

[3] = test compound-administered groups (1, 3.2, 10 mg/kg/day oral) vs dimethylnitrosamine control, figure only

CC#CCC(C)[C@H](O)/C=C/[C@@H]1[C@H]2c3cccc(CCCC(=O)O)c3O[C@H]2C[C@H]1O (mixture of isomers) [beraprost]
hepatic coagulation necrosis in acute hepatitis (acute hepatitis): inhibits hepatic coagulation necrosis

O=C(O)COc1cccc2c1CC[C@](O)(COC(=O)N(c1ccccc1)c1ccccc1)C2 [Test compound, [[(2R)-5-(carboxymethoxy)-2-hydroxy-1,2,3,4-tetrahydronaphth-2-yl]methyl]N,N-diphenylcarbamate]
Hepatic Fibrogenesis Score ([1]; 1 mg/kg/day oral, control (0 mg/kg) 2.1 ± 0.2): 1.7 ± 0.2
Hepatic Fibrogenesis Score ([1]; 3.2 mg/kg/day oral, p < 0.05 vs. 0 mg/kg (2.1 ± 0.2)): 1.3 ± 0.2*
Hepatic Fibrogenesis Score ([1]; 10 mg/kg/day oral, p < 0.05 vs. 0 mg/kg (2.1 ± 0.2)): 1.3 ± 0.2*
hepatic fibrogenesis (histology), in words ([1]; test compound-administered groups (1, 3.2, 10 mg/kg/day oral) vs dimethylnitrosamine control): inhibited
hepatic hydroxyproline content (hepatic collagen content) [1, 3]: decreased
liver weight reduction [1, 3]: suppressed
Hydroxyproline Content (lung) ([2]; 32 mg/kg oral daily, 4 weeks after start of bleomycin, n=15, positive control 398.19 ± 15.483, negative control 200.03 ± 6.9707, p < 0.01 vs positive control): 308.37 ± 19.403 ug/lung
increase in the lung hydroxyproline content caused by bleomycin administration ([2]; oral administration of 32 mg/kg): significantly inhibited
